Results: publication PMC8842743 (Journal of Alzheimer's Disease Reports, 2022)

What was measured:
[1] = test system: Aβ; settings: cited from earlier work
[2] = biological target: Porcine gastric mucosa pepsin (Sus scrofa, UniProt P00791); assay: Pepsin FRET assay; format: biochemical
[3] = biological target: T1, Renin recombinant human enzyme (Homo sapiens, UniProt P00797); assay: Renin FRET assay; format: biochemical
T1 sequence (P00797 67-406): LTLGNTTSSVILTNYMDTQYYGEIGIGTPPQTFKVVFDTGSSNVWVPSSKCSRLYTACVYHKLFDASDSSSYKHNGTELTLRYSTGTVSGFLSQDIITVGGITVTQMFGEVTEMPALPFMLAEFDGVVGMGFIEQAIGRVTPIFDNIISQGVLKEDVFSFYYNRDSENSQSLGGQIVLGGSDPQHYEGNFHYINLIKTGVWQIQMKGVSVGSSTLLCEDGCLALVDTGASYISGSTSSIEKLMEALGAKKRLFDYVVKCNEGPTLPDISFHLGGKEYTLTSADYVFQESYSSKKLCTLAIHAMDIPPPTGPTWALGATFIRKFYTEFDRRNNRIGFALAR

Porcine gastric mucosa pepsin, sequence (P00791 60-385): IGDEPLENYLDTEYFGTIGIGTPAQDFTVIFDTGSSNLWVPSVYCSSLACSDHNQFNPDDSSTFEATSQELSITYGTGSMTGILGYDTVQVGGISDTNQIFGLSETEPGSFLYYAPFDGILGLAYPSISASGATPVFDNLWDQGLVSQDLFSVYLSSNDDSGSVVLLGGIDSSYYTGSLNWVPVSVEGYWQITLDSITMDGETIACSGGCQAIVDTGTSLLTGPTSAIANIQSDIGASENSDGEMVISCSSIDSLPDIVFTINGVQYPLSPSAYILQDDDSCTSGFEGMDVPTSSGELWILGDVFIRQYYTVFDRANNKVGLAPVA

SMILES | Aβ reduction explored in Phase III studies [1] | IC50 [2] | IC50 [3]
CN1C(=N)N[C@](C)(c2cc(NC(=O)c3ccc(F)cn3)ccc2F)CS1(=O)=O [verubecestat] | approximately 85% |  | 
NC1=N[C@@]2(c3cc(NC(=O)c4ccc(F)cn4)ccc3F)COC[C@H]2CS1 [LY2886721, reference compound] |  | 77.4 µM | 14.1 µM
